# US7160685B2, “Diagnostic reagents for human cytomegalovirus and methods of use” (priority 1996, dated 2007)
# Where no end group is shown, it is not given here. [ ]: non-standard residue; d: D form. Cha = N[C@@H](CC1CCCCC1)C(=O)O
# Experiments:
# [1] = test system: HCMV infected and non-infected HLA A*0201 and HLA-mismatched fibroblast targets; test: single component lipid-HTL-CTL vaccine in transgenic HLA A2.1 mice, fibroblast targets; format: in vivo, mouse; settings: 100 nmoles s.c., no adjuvant
# Method: (§1) Molecule A (SEQ ID NO:37) is a vaccine that has the capability of working in mice and humans, whereas molecule B (SEQ ID NO:38) should only be functional in mice. One hundred nanomoles of each of these vaccine peptides in 25% dimethysulfoxide in phosphate buffered saline with 2.5% hexafluoroisopropanol were injected s.c. into separate transgenic HLA A2.1 mice.
# (§2) The methods referred to in Examples 9 and 10 were used to derive spleen cell populations containing cells which were specific against pp65 and HCMV. The spleen cells from immunized mice were tested for recognition and cytolysis against specific and non-specific peptide-sensitized targets, HCMV infected and non-infected HLA A*0201 and HLA-mismatched fibroblast targets. […] This stimulative effect of the booster is in agreement with B. Livingston et al., J. Immunol. 159:1383–1392 (1997)).
# [2] = test system: peptide-sensitized targets; test: single component lipid-HTL-CTL vaccine in transgenic HLA A2.1 mice, peptide-sensitized targets; format: in vivo, mouse; settings: for lysis of p53149-157 sensitized targets by spleen cells of immunized mice / lysis of pp65495-503 peptide sensitized targets by spleen cells of immunized mice: 100 nmoles s.c. in 25% DMSO/PBS with 2.5% hexafluoroisopropanol
# Method: as §1, §2
# HLA A or B Allele = format: cell-based, human; settings: for HLA A or B Allele Specificity: and subtypes where given
Substance,Number of Test Cell Lines (independent cell lines of the same restriction which were sensitized) (HLA A or B Allele),HLA A or B Allele Specificity (HLA A or B Allele),also measured
"(Pam)2-KSSAKXVAAWTLKAAANLVPMVATV (KSSAK[Cha]VAAWTLKAAANLVPMVATV; not fully specified (residue 1, N-terminus); printed as (Pam)2-KSSAKXVAAWTLKAAANLVPMVATV; also: (Pam)2- two palmitoyl groups at N-terminal end, attachment not given here) [SEQ ID NO:37]",–,–,"lysis of HCMV-infected HLA A*0201 fibroblasts [1]: effectively lysed; lysis of uninfected or HLA-mismatched fibroblasts [1]: not recognized or lysed; immune response after single immunization ([2]; 50 nmole, single immunization): not effective; immune response after second immunization (booster) ([2]; 50 nmole, with booster): detectable immune response; lysis of p53149-157 sensitized targets by spleen cells of immunized mice ([2]; no adjuvant): ineffective; lysis of pp65495-503 peptide sensitized targets by spleen cells of immunized mice ([2]; no adjuvant): effectively lysed; relative potency of molecules A and B ([2]; 100 nmoles s.c., no adjuvant): more potent of the two"
"(Pam)2-KSSISQAVHAAHAEINEAAANLVPMVATV (also: two palmitoyl groups on the N-terminal lysine, exact amine positions not given here) [SEQ ID NO:38]",–,–,lysis of HCMV-infected HLA A*0201 fibroblasts [1]: effectively lysed; lysis of uninfected or HLA-mismatched fibroblasts [1]: not recognized or lysed; lysis of p53149-157 sensitized targets by spleen cells of immunized mice ([2]; no adjuvant): ineffective; lysis of pp65495-503 peptide sensitized targets by spleen cells of immunized mice ([2]; no adjuvant): effectively lysed
EFFWDANDIY (listed as Human cytomegalovirus) [SEQ ID NO: 13],2,HLA B*44XX,–
FPTKDVAL [SEQ ID NO: 9],3,"HLA B*3502,",–
FTSQYRIQGKL (listed as Human cytomegalovirus) [SEQ ID NO: 14],4,HLA A*2402,–
FVFPTKDVALR (listed as Human cytomegalovirus) [SEQ ID NO: 5],3,HLA A*6801,–
PTFTSQYRIQGKL (listed as Human cytomegalovirus) [SEQ ID NO: 12],3,HLA B*3801/2,–
RPHERNGFTVL (listed as Human cytomegalovirus) [SEQ ID NO: 10],5,HLA B7,–
SVLGPISGHVLK [SEQ ID NO: 11],5,HLA A*1101,–
TPRVTGGGAM (listed as Human cytomegalovirus) [SEQ ID NO: 7],5,HLA B7,–
